In patent US20080227790A1, “Pyridazinone Derivatives and their Use as Pde4 Inhibitors” (Altana Pharma AG, priority 2004, published 2008):

Experiments:
[1] = biological target: T1, PDE4B2 (Homo sapiens, UniProt Q07343); assay: Inhibition of PDE4B2 activity, modified [3H]cAMP SPA enzyme assay; format: biochemical; conditions: recombinant PDE4B2 (GB no. M97515) expressed in SF21 cells; 0.5 μM cAMP; 15 min at 37° C.; read-out: PDE4 Inhibition [measured as −logIC50 (mol/l)] (converted)
T1 construct: made in house; host or cells: SF21 insect cells (baculovirus prepared in SF9 cells; pCR-Bac vector)
Procedure: PDE4B2 (GB no. M97515) was a gift of Prof. M. Conti (Stanford University, USA). It was amplified from the original plasmid (pCMV5) via PCR with primers Rb9 (5′-[…]-3′) and Rb10 (5′-[…]-3′) and cloned into the pCR-Bac vector (Invitrogen, Groningen, NL).
The recombinant baculovirus was prepared by means of homologous recombination in SF9 insect cells. The expression plasmids were cotransfected with Bac-N-Blue (Invitrogen, Groningen, NL) or Baculo-Gold DNA (Pharmingen, Hamburg) using a standard protocol (Pharmingen, Hamburg). Wt virus-free recombinant virus supernatants were selected using plaque assay methods. After that, high-titre virus supernatants were prepared by amplifying 3 times. PDE4B2 was expressed in SF21 cells by infecting 2×10^6 cells/ml with an MOI (multiplicity of infection) between 1 and 10 in serum-free SF900 medium (Life Technologies, Paisley, UK). The cells were cultured at 28° C. for 48-72 hours, after which they were pelleted for 5-10 min at 1000 g and 4° C.
The SF21 insect cells were resuspended, at a concentration of approx. 10^7 cells/ml, in ice-cold (4° C.) homogenization buffer (20 mM Tris, pH 8.2, containing the following additions: 140 mM NaCl, 3.8 mM KCl, 1 mM EGTA, 1 mM MgCl2, 10 mM β-mercaptoethanol, 2 mM benzamidine, 0.4 mM Pefablock, 10 μM leupeptin, 10 μM pepstatin A, 5 μM trypsin inhibitor) and disrupted by ultrasonication. The homogenate was then centrifuged for 10 min at 1000×g and the supernatant was stored at −80° C. until sub-sequent use (see below). The protein content was determined by the Bradford method (BioRad, Munich) using BSA as the standard.
PDE4B2 activity was inhibited by the compounds according to the invention in a modified SPA (scintillation proximity assay) test, supplied by Amersham Biosciences (see procedural instructions “phosphodiesterase [3H]cAMP SPA enzyme assay, code TRKQ 7090”), carried out in 96-well microtitre plates (MTP's). The test volume is 100 μl and contains 20 mM Tris buffer (pH 7.4), 0.1 mg of BSA (bovine serum albumin)/ml, 5 mM Mg^2+, 0.5 μM cAMP (including about 50,000 cpm of [3H]cAMP), 1 μl of the respective substance dilution in DMSO and sufficient recombinant PDE (1000×g supernatant, see above) to ensure that 10-20% of the cAMP is converted under the said experimental conditions. […] After a preincubation of 5 min at 37° C., the reaction is started by adding the substrate (cAMP) and the assays are incubated for a further 15 min; after that, they are stopped by adding SPA beads (50 μl). In accordance with the manufacturer's instructions, the SPA beads had previously been resuspended in water, but were then diluted 1:3 (v/v) in water; the diluted solution also contains 3 mM IBMX to ensure a complete PDE activity stop. After the beads have been sedimented (>30 min), the MTP's are analyzed in commercially available luminescence detection devices. The corresponding IC50 values of the compounds for the inhibition of PDE4B2 activity are determined from the concentration-effect curves by means of non-linear regression.

T1 sequence (Q07343 1-564 isoform Q07343-2): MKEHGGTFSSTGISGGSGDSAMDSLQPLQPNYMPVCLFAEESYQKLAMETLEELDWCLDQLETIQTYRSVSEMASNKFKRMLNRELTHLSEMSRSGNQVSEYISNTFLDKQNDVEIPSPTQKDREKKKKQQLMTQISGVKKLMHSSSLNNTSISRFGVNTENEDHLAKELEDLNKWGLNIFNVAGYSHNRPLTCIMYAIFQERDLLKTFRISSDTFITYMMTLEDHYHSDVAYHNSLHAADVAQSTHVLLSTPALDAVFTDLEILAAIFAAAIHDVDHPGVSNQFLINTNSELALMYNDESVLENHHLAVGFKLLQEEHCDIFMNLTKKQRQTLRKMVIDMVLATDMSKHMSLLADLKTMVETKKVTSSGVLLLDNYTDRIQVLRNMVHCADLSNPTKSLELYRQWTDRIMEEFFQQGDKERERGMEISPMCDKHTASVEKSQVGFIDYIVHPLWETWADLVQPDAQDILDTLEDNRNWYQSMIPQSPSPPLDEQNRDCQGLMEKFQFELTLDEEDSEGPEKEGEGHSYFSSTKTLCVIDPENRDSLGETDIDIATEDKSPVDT

Row | Compound | melting point | IC50 [1]
1 | COc1ccc(C2=NN(c3ccc(C(=O)O)cc3)C(=O)C(C)(C)C2)cc1OC [Compound 1, 4-(3-{3,4-dimethoxyphenyl}-5,5-dimethyl-6-oxo-5,6-dihydro-4H-pyridazin-1-yl)-benzoic acid] | 196 to 198 °C | 32.4 nM
2 | COc1ccc(C2=NN(c3ccc(OCc4ccccc4)cc3)C(=O)C(C)(C)C2)cc1OC [Compound 2, 2-(4-Benzyloxy-phenyl)-6-(3,4-dimethoxy-phenyl)-4,4-dimethyl-4,5-dihydro-2H-pyridazin-3-one] | 137 to 138 °C | 3.98 nM
3 | COc1ccc(C2=NN(c3ccc(C(=O)N4CCN(CCN5CCOCC5)CC4)cc3)C(=O)C(C)(C)C2)cc1OC.Cl.Cl [Compound 3, 6-(3,4-Dimethoxy-phenyl)-4,4-dimethyl-2-(4-{1-[4-(2-morpholin-4-yl-ethyl)-piperazin-1-yl]-methanoyl}-phenyl)-4,5-dihydro-2H-pyridazin-3-one dihydrochloride] | 249 °C (dec.) | 11.2 nM
4 | COc1ccc(C2=NN(c3ccc(C(=O)N4CCN(c5ccncc5)CC4)cc3)C(=O)C(C)(C)C2)cc1OC.Cl.Cl [Compound 4, 6-(3,4-Dimethoxy-phenyl)-4,4-dimethyl-2-{4-[1-(4-pyridin-4-yl-piperazin-1-yl)-methanoyl]-phenyl}-4,5-dihydro-2H-pyridazin-3-one dihydrochloride] | 223 to 225 °C | 7.76 nM
5 | COc1ccc(C2=NN(c3ccc(O)cc3)C(=O)C(C)(C)C2)cc1OC [Compound 5, 6-(3,4-Dimethoxy-phenyl)-2-(4-hydroxy-phenyl)-4,4-dimethyl-4,5-dihydro-2H-pyridazin-3-one] | 176 to 178 °C | 6.03 nM
6 | COc1ccc(C2=NN(c3ccc(C(=O)N4CCOCC4)cc3)C(=O)C(C)(C)C2)cc1OC [Compound 6, 6-(3,4-Dimethoxy-phenyl)-4,4-dimethyl-2-[4-(1-morpholin-4-yl-methanoyl)-phenyl]-4,5-dihydro-2H-pyridazin-3-one] | 165 to 166 °C | 1.74 nM
7 | COc1ccc(C2=NN(c3ccc(OCC(N)=O)cc3)C(=O)C(C)(C)C2)cc1OC [Compound 7, 2-{4-[3-(3,4-Dimethoxy-phenyl)-5,5-dimethyl-6-oxo-5,6-dihydro-4H-pyridazin-1-yl]-phenoxy}-acetamide] | 184 to 187 °C | 10.5 nM
8 | COc1ccc(C2=NN(c3ccc(C(=O)N4CCN(CC(=O)N5CCCC5)CC4)cc3)C(=O)C(C)(C)C2)cc1OC.Cl [Compound 8, 6-(3,4-Dimethoxy-phenyl)-4,4-dimethyl-2-(4-{1-[4-(2-oxo-2-pyrrolidin-1-yl-ethyl)-piperazin-1-yl]-methanoyl}-phenyl)-4,5-dihydro-2H-pyridazin-3-one hydrochloride] | 144 to 146 °C | 7.59 nM
9 | COc1ccc(C2=NN(c3ccc(OCC(=O)N4CCN(C)CC4)cc3)C(=O)C(C)(C)C2)cc1OC.Cl [Compound 9, 6-(3,4-Dimethoxy-phenyl)-4,4-dimethyl-2-{4-[2-(4-methyl-piperazin-1-yl)-2-oxo-ethoxy]-phenyl}-4,5-dihydro-2H-pyridazin-3-one hydrochloride] | 198 to 202 °C | –
10 | COc1ccc(C2=NN(c3ccc(OCC(=O)N4CCOCC4)cc3)C(=O)C(C)(C)C2)cc1OC [Compound 10, 6-(3,4-Dimethoxy-phenyl)-4,4-dimethyl-2-[4-(2-morpholin-4-yl-2-oxo-ethoxy)-phenyl]-4,5-dihydro-2Hpyridazin-3-one] | 74 to 79 °C | 15.5 nM
11 | COc1ccc(C2=NN(c3cccc(C(=O)O)c3)C(=O)C(C)(C)C2)cc1OC [Compound 11, 3-[3-(3,4-Dimethoxy-phenyl)-5,5-dimethyl-6-oxo-5,6-dihydro-4H-pyridazin-1-yl]-benzoic acid] | 165 to 167 °C | –
12 | COc1ccc(C2=NN(c3cccc(C(=O)N4CCOCC4)c3)C(=O)C(C)(C)C2)cc1OC [Compound 13, 6-(3,4-Dimethoxy-phenyl)-4,4-dimethyl-2-[3-(1-morpholin-4-yl-methanoyl)-phenyl]-4,5-dihydro-2H-pyridazin-3-one] | 108 to 109 °C | –
13 | COc1ccc(C2=NN(c3ccc(CC(=O)N4CCOCC4)cc3)C(=O)C(C)(C)C2)cc1OC [Compound 14, 6-(3,4-Dimethoxy-phenyl)-4,4-dimethyl-2-[4-(2-morpholin-4-yl-2-oxo-ethyl)-phenyl]-4,5-dihydro-2H-pyridazin-3-one] | 165 to 167 °C | –
14 | COc1ccc(C2=NN(c3ccc(Br)cc3)C(=O)C(C)(C)C2)cc1OC [Compound 15, 2-(4-Bromo-phenyl)-6-(3,4-dimethoxy-phenyl)-4,4-dimethyl-4,5-dihydro-2H-pyridazin-3-one] | 123 to 124 °C | –
15 | COc1ccc(C2=NN(c3ccc(N4CCOCC4)cc3)C(=O)C(C)(C)C2)cc1OC [Compound 16, 6-(3,4-Dimethoxy-phenyl)-4,4-dimethyl-2-(4-morpholin-4-yl-phenyl)-4,5-dihydro-2H-pyridazin-3-one] | 178 to 179 °C | –
